The source of these data is PMC8878317, “Chemogenomics identifies acetyl-coenzyme A synthetase as a target for malaria treatment and prevention” (Cell Chemical Biology, 2022).

The target of this assay is T1, HsAcAS WT (Homo sapiens, UniProt Q9NR19).
T1 construct: made in house; host or cells: Expi293 cells (pCDNA 3.1, transient transfection)
Kind of assay: HsAcAS Rapid-Fire QQQ mass spectrometry assay. It is filed as biochemical. As to conditions: for IC50: approximate Km for each substrate, read-out: IC50 (μM), AcAS HsWT. How it is done: The human form of acetyl-CoA synthetase was assayed in 100 mM HEPES (pH7.4), 100 mM NaCl, 250 mM KCl, 50 mM MgCl2, 1 mM DTT, 0.005% NP40, 400 μM ATP, 70 μM acetate, 40 μM CoA and 2 nM recombinant HsAcAS. Assay ready plates containing different concentrations of inhibitor were prepared using an Echo 550 acoustic dispenser (Labcyte Inc.), dispensing 150 nL of compound per well. Assays were conducted in a total volume of 15 μL for 30 min at room temperature before being quenched with the addition of 85 μL 1% formic acid containing 0.5 μg/mL n-Propionyl coenzyme A (Sigma P5397) as an internal standard. Reaction products were detected using a RapidFire 365 system (Agilent, Santa Clara, CA) coupled with a triple quadrupole mass spectrometer 6740 (Agilent).
The sipper was washed to minimize carryover with 0.1% TFA in deionized water followed by 0.1% TFA in acetonitrile/deionized water (95%/5%, v/v). The sipper was washed to minimize carryover with deionized water followed by acetonitrile. Aspiration time, load/wash time, elution time, and re-equilibration time were set to 600, 3000, 5000, and 500 ms, respectively, with a cycle time of approximately 10 s. The triple-quadrupole mass spectrometer with electrospray ion source was operated in positive multiple reaction monitoring (MRM) mode. The detailed setting for the mass spectrometer parameters was as follows: capillary voltage, 3000 V; gas temperature, 350°C; gas flow, 7 L/min; nebulizer, 40 psi; sheath gas temperature, 300°C′ sheath gas flow, 11 L/min; and nozzle voltage, 1500 V. The MRM transitions for acetyl-CoA as a reaction product were set as 810.1/303.1 & 810.1/428.1 (quantifier & qualifier with dwell time of 50 ms, 100V fragmentor, and collision energies of 30 & 28 eV respectively) and for n-propionyl-CoA as an internal standard as 824.2/317.2 & 824.2/428.0 (quantifier & qualifier with dwell time of 50 ms, 100V fragmentor, and collision energies of 32 & 26 eV respectively). The mass resolution window for both parental and daughter ions was set at as a unit (0.7 Da). Peak areas were integrated, and area ratios of acetyl-CoA to the internal standard (n-propionyl CoA) were used for quantitation. Data were converted to % inhibition relative to the uninhibited enzyme control and fitted to Equation 3.

T1 sequence (Q9NR19 whole entry): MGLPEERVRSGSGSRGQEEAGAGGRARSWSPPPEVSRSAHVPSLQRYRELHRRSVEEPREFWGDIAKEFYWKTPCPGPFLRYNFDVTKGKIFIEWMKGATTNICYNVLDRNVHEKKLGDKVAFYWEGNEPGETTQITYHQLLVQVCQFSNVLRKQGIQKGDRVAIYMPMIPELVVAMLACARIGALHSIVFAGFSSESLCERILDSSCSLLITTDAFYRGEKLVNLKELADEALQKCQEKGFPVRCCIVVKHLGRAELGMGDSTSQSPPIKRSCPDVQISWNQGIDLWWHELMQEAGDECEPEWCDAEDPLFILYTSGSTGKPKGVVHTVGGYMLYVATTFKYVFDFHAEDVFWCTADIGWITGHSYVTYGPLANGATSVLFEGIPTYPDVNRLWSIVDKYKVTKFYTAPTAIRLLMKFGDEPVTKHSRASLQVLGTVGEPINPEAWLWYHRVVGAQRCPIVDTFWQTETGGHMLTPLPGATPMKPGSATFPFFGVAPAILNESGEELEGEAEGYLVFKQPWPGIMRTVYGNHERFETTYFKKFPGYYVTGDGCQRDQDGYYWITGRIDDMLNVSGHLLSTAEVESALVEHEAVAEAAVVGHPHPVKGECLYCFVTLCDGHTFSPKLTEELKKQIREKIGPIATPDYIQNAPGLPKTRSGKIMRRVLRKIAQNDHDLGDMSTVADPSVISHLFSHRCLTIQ

One may read the IC50 as the concentration that gives 50% inhibition. As for `CCN(CC)S(=O)(=O)c1ccc(Cl)c(C(=O)Nc2ccc3nc(C)sc3c2)c1` [MMV019721], the IC50 is more than 100 µM.
For `O=C(NNC(=O)c1csnn1)c1ccc(Cl)cc1` [MMV084978], the “Hill, AcAS HsWT” value came to 0.85 ± 0.07 and the IC50 worked out at 18 ± 1.9 µM.
